Laboratory results taken from patent US8124770B2, “Fluorescent cellular markers” (priority 2009, dated 2012).
Read-outs that look alike come from different tables or passages of the source.

Legend:
Type in all cases: cell-based, human
[1] = system: caspases 3 and 7 in A431 cells; experiment: Caspases 3 and 7 activation, Magic Red assay, on A431 cells; settings: 48 hours of exposure, Cisplatin 3 uM positive control
Method: D. et al 2004; Blanc, C. et al 2000) making Cisplatin and Staurosporine appropriate positive controls for this assay. Cell culture media, such as RPMI 1640, modified with additional nutrients and additives such as Fetal Bovine serum and antibiotic has been added to improve the cell replication and prevent bacterial contamination was employed. […] The final volume on each plate was 9 ml of modified RPMI 1640 that contained the cell aliquot, media and drug. […] At the end of the treatment time cells were washed with PBS, detached with 5% trypsin enzyme and centrifuged. Cells were counted and aliquots were stained for an hour with cresyl violet (fluorochrome). […] Apoptotic cells (red) were distinguished from non apoptotic (non-fluorescent) using the negative and positive controls as reference.

[2] = system: Epidermoid carcinoma A431 cells; experiment: Cell cytotoxicity (growth inhibition) of BQS on A431 cells, Trypan Blue Exclusion; settings: 5 to 100 uM, read-out: IC50 (inhibition of 50% of the cell population)
Method: Regarding the cytotoxicity, in order to determine the cell cytotoxicity of the BQS, duplicates cultures of 5×10^6 cells were seeded in 25 cm^2 flasks. The final volume on each plate was 9 ml of modified RPMI 1640 that contained the cell aliquot, media and BQS of present invention. Cells were then incubated for 4 hours to allow cells to adhere to the flask. Cells were cultured for 48 hours with BQS at concentration ranging from 5 to 100 uM. A negative control treated with ultra pure water (vehicle) was included in each experiment. […] At the end of the exposure period, media was removed and cultures rinsed twice with phosphate buffered saline (PBS) for removal of the compounds in solution. Cells detached with 5% trypsin enzyme, centrifuged, resuspended in fresh media and counted through a cell viability protocol, such as the Trypan Blue Exclusion analysis. Cell survival was calculated and plotted against time with the Microsoft Excel® software.

A431 tumor cells = experiment: Auto-fluorescence on A431 tumor cells, inverted fluorescence microscopy; settings: at IC50 concentration, monitored through 72 hour period, Olympus CKX41
Method: Regarding the autofluorencense, Ellipticine was selected as a fluorescent positive control since it is a structural analog of ABQS's. The elipticine's IC50 dose in A431 was determine by treating A431 cell cultures (in duplicates) at concentrations ranging from 0 to 50 μM. The final volume on each plate was 9 mL of modified RPMI 1640 that contained the cell aliquot, media and drug. Cells were exposed to ABQS's and Ellipticine at their IC50 concentrations, incubated and monitored through a 72 hour period by inverted microscopy. An Olympus CKX41 inverted fluorescent microscope (50 w Hg lamp), with U filter; 40× objective. Photographs were obtained at 13-17 seconds of exposure using the Q Capture Software. Auto-fluorescent cells were distinguished from non-auto-fluorescent ones using the negative and positive controls as reference.

[3] = system: DNA and mitochondria of A431 tumor cells; experiment: Intra cellular binding to organelles, wide-field fluorescence microscopy of A431 tumor cells; settings: fluorescence microscope (FIG. 11)
[4] = Homo sapiens, A-431, 48 hours exposure

Compound | Caspases 3 and 7 activation [1] [%] | IC50 ([2]; 48 hours exposure) [µM] | auto fluorescence in cells (A431 tumor cells) | capacity to bind to cellular organelles [3] | IC50 [2, 4] [µM]
7-Ethyl-3-nitrobenzimidazolo[3,2-a]quinolinium Chloride [NBQ38] | 22±7 | 36 | – | – | –
CC[n+]1c2ccccc2n2c3ccc(N)cc3ccc21.[Cl-] [ABQ38, 3-amino-7-ethylbenzimidazo[3,2-a]quinolinium chloride] | 51±1 | 32 | auto fluorescence | bind to DNA and mitochondria | –
Cc1ccc2sc3ccc4cc(N)c(Cl)cc4[n+]3c2c1.[Cl-] [ABQ95, 3-amino-2-chloro-10-methylbenzothiazolo[3,2-a]quinolinium chloride] | 46±6 | – | – | bind to DNA and mitochondria | 36
N.N.[Cl][Pt][Cl] [Cisplatin, reference compound] | 51±13 | – | – | – | –
Cc1ccc2sc3ccc4cc([N+](=O)[O-])c(Cl)cc4[n+]3c2c1 [NBQ95, 2-Chloro-10-methyl-3-nitrobenzothiazolo[3,2-a]quinolinium chloride] | – | – | – | – | 28
